Values after ≈ are worked out from the molar mass of the structure shown.
Columns and labels:
Assay type in all cases: cell-based
S. aureus ATCC 13709 = assay: MIC, antibacterial potency, S. aureus; details: S. aureus (SA); in µg/mL
S. pneumoniae ATCC 51916 = assay: MIC, S. pneumoniae; details: S. pneumoniae (Spn52); in µg/mL
E. coli 8 ATCC 25922 = assay: MIC, E. coli 8 (wt); details: E. coli 8 (EC8)

Row | MIC, SA (S. aureus ATCC 13709) | MIC Spn52 (S. pneumoniae ATCC 51916) | MIC EC8 (E. coli 8 ATCC 25922) | Compound
1 | 8 | 16 | > 64 µg/mL | CCc1[nH]c2nc(Sc3cnc4ccc[n+]([O-])c4c3)nc(N(C)CCNC)c2c1Cl [701,037]
2 | >64 | >64 | > 64 µg/mL | NC1C2CN(c3nc(Sc4cnc5ccc[n+]([O-])c5c4)nc4[nH]c(CC(F)(F)F)c(Cl)c34)CC12 (stereo not drawn) [701,236]
3 | 4 | 8 | 8 µg/mL (≈ 14.5 µM) | CCc1[nH]c2nc(Sc3ccc4c(N5CCC(N)CC5)nc(C)nc4c3)nc(N3CC4C(N)C4C3)c2c1Cl (stereo not drawn) [700,984]
4 | 4 | 8 | > 16 µg/mL | CCc1[nH]c2nc(Oc3cncnc3)nc(N3CC4C(C3)C4NC(C)=O)c2c1Br (stereo not drawn) [701,052]
5 | 4 | 4 | 8 µg/mL (≈ 13.9 µM) | CCc1[nH]c2nc(Sc3ccc4c(N5CC(CN)C5)cc(C(F)(F)F)nc4c3)nc(N3CC[C@@H](N)C3)c2c1Cl [700,917]
6 | <=0.5 | 1 | > 64 µg/mL | CCc1[nH]c2nc(Sc3cnc4cccnc4c3)nc(N3CCC(CNS(C)(=O)=O)C3)c2c1Cl (stereo not drawn) [701,042]
7 | <=0.5 | 1 | > 64 µg/mL | CCc1[nH]c2nc(Oc3cncc(OC)c3)nc(Oc3cncc(OC)c3)c2c1Br [700,937]
8 | 16 | 16 | > 32 µg/mL | CCc1[nH]c2nc(Oc3cncc(C#N)c3)nc(N3CC4C(C3)C4(N)C(N)=O)c2c1Cl (stereo not drawn) [700,981]
9 | 4 | 4 | > 64 µg/mL | CCc1[nH]c2nc(Oc3cnc4c(c3)ncn4C)nc(N3CC[C@@H](NC(C)=O)C3)c2c1Cl [701,034]
10 | <=0.5 | 1 | > 64 µg/mL | CCc1[nH]c2nc(Sc3cnc4cccnc4c3)nc(N3CCC(CNC(C)=O)C3)c2c1Cl (stereo not drawn) [701,044]
11 | 4 | 8 | > 64 µg/mL | CCc1[nH]c2nc(Oc3cccnc3)nc(N3CC4C(N)C4C3)c2c1Cl (stereo not drawn) [701,140]
12 | <=0.5 | 4 | > 32 µg/mL | CCc1[nH]c2nc(Oc3ccc[n+]([O-])c3)nc(Oc3cccnc3)c2c1Br [701,093]
13 | 4 | 8 | > 64 µg/mL | CCc1[nH]c2nc(Oc3cncnc3)nc(N3CC4CNC4C3)c2c1Cl (stereo not drawn) [700,941]
14 | 1 | 2 | > 64 µg/mL | CCc1[nH]c2nc(Oc3ccc4nccnc4c3)nc(N3CC4C(C3)C4NC(C)=O)c2c1Cl (stereo not drawn) [701,012]
15 | 1 | 2 | > 64 µg/mL | CCc1[nH]c2nc(Oc3cncnc3)nc(Oc3cnc(N)nc3)c2c1Cl [701,241]
16 | 2 | 4 | > 32 µg/mL | CCc1[nH]c2nc(Sc3ccc4c[n+]([O-])cnc4c3)nc(N3CC[C@@H](N)C3)c2c1Cl [701,051]
17 | <=0.5 | 2 | 16 µg/mL (≈ 37.4 µM) | CCc1[nH]c2nc(Sc3cnc4ccc[n+]([O-])c4c3)nc(N3CC(N)C3)c2c1Cl [701,036]
18 | >64 | >64 | > 64 µg/mL | CC(C)(C)OC(=O)N[C@@H]1CCN(c2nc(Sc3cnc4nccnc4c3)nc3[nH]c(C4CC4)c(Cl)c23)C1 [700,978]
19 | >64 | 16 | > 64 µg/mL | CCc1[nH]c2nc(Sc3cnc4cccnc4c3)nc(N3C[C@H](N)[C@H](C(=O)NCC(C)O)C3)c2c1Cl (stereo partly drawn) [701,018]
20 | 2 | 16 | 64 µg/mL (≈ 143 µM) | CCc1[nH]c2nc(Sc3cnc4ncn(C)c(=O)c4c3)nc(N3CC4C(N)C4C3)c2c1C (stereo not drawn) [701,239]

Row | MIC, SA (S. aureus ATCC 13709) | MIC Spn52 (S. pneumoniae ATCC 51916) | MIC EC8 (E. coli 8 ATCC 25922) | Compound
21 | <=0.5 | 2 | 16 µg/mL (≈ 36.3 µM) | CCc1[nH]c2nc(Sc3ccc4ccc[n+]([O-])c4c3)nc(N3CC[C@@H](N)C3)c2c1Cl [700,993]
22 | >64 | >64 | > 64 µg/mL | CCc1[nH]c2nc(Oc3cccc(C#N)c3)nc(C(C)N3CCC(N)C3)c2c1Cl (stereo not drawn) [700,950]
23 | 8 | 16 | > 64 µg/mL | CCc1[nH]c2nc(Oc3cncnc3)nc(N3CCCC3CO)c2c1Cl (stereo not drawn) [700,908]
24 | <=0.5 | <=0.5 | 8 µg/mL (≈ 15.7 µM) | CCc1[nH]c2nc(Sc3ccc4cc5c([n+]([O-])c4c3)CCOC5)nc(N3CC4C(N)C4C3)c2c1Cl (stereo not drawn) [701,084]
25 | >64 | >64 | > 64 µg/mL | CCc1[nH]c2nc(Oc3ccc4nccnc4c3)nc(Oc3ccc(C#N)cc3Cl)c2c1Cl [701,286]
26 | >64 | >64 | > 64 µg/mL | CCc1[nH]c2nc(Oc3cncnc3)nc(N3CCC(N)C3)c2c1Cl (stereo not drawn) [700,910]
27 | <=0.5 | <=0.5 | > 64 µg/mL | CCc1[nH]c2nc(Oc3cnc4cccnc4c3)nc(Oc3cccc(C#N)c3)c2c1Br [701,252]
28 | <=0.5 | <=0.5 | 4 µg/mL (≈ 9.48 µM) | CCc1[nH]c2nc(Oc3cnc4cccnc4c3)nc(N3CC4C(N)C4C3)c2c1Cl (stereo not drawn) [701,126]
29 | >64 | >64 | > 64 µg/mL | CCc1[nH]c2nc(Sc3cncc(S(=O)(=O)N(C)C)c3)nc(N3CC[C@@H](N)C3)c2c1C [701,182]
30 | 16 | 32 | > 64 µg/mL | CCc1[nH]c2nc(Oc3cnc(N)nc3)nc(N3CC(CN(C)C)C3)c2c1Cl [701,112]
31 | 8 | 16 | > 64 µg/mL | CCc1[nH]c2nc(Oc3ccc4nccnc4c3)nc(N3CC(CN(C)C)C3)c2c1Br [701,114]
32 | >64 | >64 | > 64 µg/mL | CCc1[nH]c2nc(Oc3cncc(C(=O)OC)c3)nc(N3CC4C(N)C4C3)c2c1Cl (stereo not drawn) [701,163]
33 | 2 | 4 | > 64 µg/mL | CCc1[nH]c2nc(Oc3ccc4ncnc(N5CC(N)C5)c4c3)nc(Oc3cncc(C#N)c3)c2c1Br [701,299]
34 | >64 | >64 | > 64 µg/mL | CCc1[nH]c2nc(Sc3ccc4[nH]cc(C#N)c(=O)c4c3)nc(N3CC[C@@H](N)C3)c2c1Cl [700,919]
35 | 2 | 4 | 64 µg/mL (≈ 141 µM) | CCc1[nH]c2nc(Sc3cnc4nccnc4c3)nc(N3CC4CNC(C4)C3)c2c1Cl (stereo not drawn) [701,137]
36 | >32 | >32 | > 32 µg/mL | CCc1[nH]c2nc(Oc3cccc(C#N)c3)nc(C(C)(NO)NO)c2c1Cl [700,954]
37 | 4 | 8 | > 64 µg/mL | CCc1[nH]c2nc(Oc3ccc4nccnc4c3)nc(N3CC[C@@H](NC(C)=O)C3)c2c1Cl [701,001]
38 | >32 | >32 | > 32 µg/mL | CCc1[nH]c2nc(Oc3cccc(C#N)c3)nc(C(C)NCCO)c2c1Cl (stereo not drawn) [700,953]
39 | <=0.5 | 2 | 32 µg/mL (≈ 68.2 µM) | CCc1[nH]c2nc(Sc3cnc4nccnc4c3)nc(N3C[C@@H]4[C@H](C3)[C@@]4(N)CO)c2c1Cl [701,144]

Row | Compound | MIC, SA (S. aureus ATCC 13709) | MIC Spn52 (S. pneumoniae ATCC 51916) | MIC EC8 (E. coli 8 ATCC 25922)
40 | CCc1[nH]c2nc(Sc3cnc4cccnc4c3)nc(N3CC[C@@H](N)C3)c2c1Cl.O=C(O)C(F)(F)F.O=C(O)C(F)(F)F [700,795] | <=0.5 | <=0.5 | 8 µg/mL

— patent US10047105B2, “Gyrase inhibitors” (Merck Sharp & Dohme Corp., priority 2009, dated 2018)
